Laboratory results reported in ChEMBL document CHEMBL1152762, “Medicinal chemistry approaches to the inhibition of dipeptidyl peptidase-4 for the treatment of type 2 diabetes” (Bioorg Med Chem, 2009).

Columns and labels:
[1] = test system: Rattus norvegicus; assay: Ex-vivo inhibition of DPP4 in rat plasma at 10 mg/kg, po after 12 hrs; format: functional
[2] = biological target: Dipeptidyl peptidase 4 (Sus scrofa, UniProt P22411); assay: Inhibition of pig kidney DPP4
[3] = biological target: T1, Dipeptidyl peptidase 4 (Rattus norvegicus, UniProt P14740)
[4] = biological target: Dipeptidyl peptidase 4 (Homo sapiens, UniProt P27487)
[5] = organism: Rattus norvegicus; assay: animal or person; details: Plasma, po, 6 h, read-out: INH
[6] = organism: Rattus norvegicus; assay: animal or person; details: Plasma, po, 10 h, read-out: INH
[7] = Cmax in Wistar rat at 1 mg/kg after 10 mins; format: ADME, organism-based; set-up: dose 1 mg/kg; details: in vivo
[8] = Stability in pH 7.4 buffer; format: physicochemical
[9] = biological target: Dipeptidyl peptidase 9 (Homo sapiens, UniProt Q86TI2); assay: Inhibition of DPP9
[10] = biological target: Dipeptidyl peptidase 8 (Homo sapiens, UniProt Q6V1X1)
[11] = biological target: T2, Dipeptidyl peptidase 2 (Homo sapiens, UniProt Q9UHL4)
[12] = test system: Mus musculus; assay: Reduction of glucose excursion in C57BL6/N mouse at 3 mg/kg, po; format: functional; set-up: scale not given: the % may be the effect or the level left
[13] = Oral bioavailability in Sprague-Dawley rat at 10 mg/kg; format: ADME, organism-based; details: in vivo
[14] = Half life in Sprague-Dawley rat at 10 mg/kg, po; format: ADME, organism-based; set-up: dose 10 mg/kg, route oral; details: in vivo
[15] = Oral bioavailability in cynomolgus monkey; format: ADME, organism-based, Macaca fascicularis; details: in vivo
[16] = biological target: T1, Dipeptidyl peptidase 4; remark: listed apart in the source
[17] = organism: Rattus norvegicus; assay: animal or person; details: Plasma, 6 h, read-out: INH
[18] = biological target: T3, Prolyl endopeptidase FAP (Homo sapiens, UniProt Q12884); assay: Inhibition of FAP
T3 sequence (Q12884 whole entry): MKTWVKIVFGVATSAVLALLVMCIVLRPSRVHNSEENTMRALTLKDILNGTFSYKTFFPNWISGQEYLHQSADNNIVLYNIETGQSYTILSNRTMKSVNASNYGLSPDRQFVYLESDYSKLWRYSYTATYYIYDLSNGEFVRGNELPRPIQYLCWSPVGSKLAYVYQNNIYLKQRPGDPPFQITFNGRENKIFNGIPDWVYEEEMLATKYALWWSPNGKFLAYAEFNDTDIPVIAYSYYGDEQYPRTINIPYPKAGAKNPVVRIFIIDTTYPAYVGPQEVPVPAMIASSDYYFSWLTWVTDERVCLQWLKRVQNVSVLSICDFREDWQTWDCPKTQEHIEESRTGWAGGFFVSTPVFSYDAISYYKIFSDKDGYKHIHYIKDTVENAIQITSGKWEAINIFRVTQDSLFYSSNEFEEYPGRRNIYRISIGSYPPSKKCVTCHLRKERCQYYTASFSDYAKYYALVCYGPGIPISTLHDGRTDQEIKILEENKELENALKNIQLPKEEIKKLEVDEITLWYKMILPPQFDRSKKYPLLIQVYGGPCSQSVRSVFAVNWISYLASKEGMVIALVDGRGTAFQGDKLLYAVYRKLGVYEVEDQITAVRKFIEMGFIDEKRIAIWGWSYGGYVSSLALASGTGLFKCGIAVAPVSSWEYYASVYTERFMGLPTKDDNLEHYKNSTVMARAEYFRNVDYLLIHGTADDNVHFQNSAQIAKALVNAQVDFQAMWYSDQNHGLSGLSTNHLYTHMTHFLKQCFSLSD

[19] = organism: Rattus norvegicus
[20] = organism: Rattus norvegicus; assay: animal or person; details: Plasma, 0.5 h, read-out: INH
[21] = organism: Rattus norvegicus; assay: animal or person; details: Plasma, 4 h, read-out: INH
[22] = Selectivity for DPP4 over DPP8
[23] = biological target: T2, Dipeptidyl peptidase 2; assay: Inhibition of DPP7
[24] = biological target: Dipeptidyl peptidase 4 (Mus musculus, UniProt P28843); assay: Inhibition of mouse DPP4
Dipeptidyl peptidase 4 (Mus musculus, UniProt P28843), sequence (P28843 whole entry): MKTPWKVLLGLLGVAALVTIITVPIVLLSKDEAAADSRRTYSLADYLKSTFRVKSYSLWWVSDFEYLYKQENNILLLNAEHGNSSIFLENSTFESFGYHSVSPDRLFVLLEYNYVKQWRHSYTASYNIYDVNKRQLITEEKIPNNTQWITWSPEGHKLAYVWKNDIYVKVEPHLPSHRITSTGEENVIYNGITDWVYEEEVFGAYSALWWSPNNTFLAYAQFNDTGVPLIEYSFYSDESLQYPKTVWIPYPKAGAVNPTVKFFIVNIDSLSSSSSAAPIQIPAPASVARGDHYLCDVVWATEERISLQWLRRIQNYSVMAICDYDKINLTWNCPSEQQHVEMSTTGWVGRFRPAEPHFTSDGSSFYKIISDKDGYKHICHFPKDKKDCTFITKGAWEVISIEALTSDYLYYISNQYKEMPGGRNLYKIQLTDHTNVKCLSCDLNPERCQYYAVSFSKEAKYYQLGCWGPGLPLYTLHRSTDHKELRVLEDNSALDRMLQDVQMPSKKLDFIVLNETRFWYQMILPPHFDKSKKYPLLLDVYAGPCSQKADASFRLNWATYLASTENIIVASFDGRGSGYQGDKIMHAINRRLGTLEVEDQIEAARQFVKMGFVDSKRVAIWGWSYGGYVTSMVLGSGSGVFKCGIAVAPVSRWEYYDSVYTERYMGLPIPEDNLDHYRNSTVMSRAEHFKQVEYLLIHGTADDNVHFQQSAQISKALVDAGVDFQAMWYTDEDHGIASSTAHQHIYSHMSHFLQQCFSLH

T1 sequence (P14740 whole entry): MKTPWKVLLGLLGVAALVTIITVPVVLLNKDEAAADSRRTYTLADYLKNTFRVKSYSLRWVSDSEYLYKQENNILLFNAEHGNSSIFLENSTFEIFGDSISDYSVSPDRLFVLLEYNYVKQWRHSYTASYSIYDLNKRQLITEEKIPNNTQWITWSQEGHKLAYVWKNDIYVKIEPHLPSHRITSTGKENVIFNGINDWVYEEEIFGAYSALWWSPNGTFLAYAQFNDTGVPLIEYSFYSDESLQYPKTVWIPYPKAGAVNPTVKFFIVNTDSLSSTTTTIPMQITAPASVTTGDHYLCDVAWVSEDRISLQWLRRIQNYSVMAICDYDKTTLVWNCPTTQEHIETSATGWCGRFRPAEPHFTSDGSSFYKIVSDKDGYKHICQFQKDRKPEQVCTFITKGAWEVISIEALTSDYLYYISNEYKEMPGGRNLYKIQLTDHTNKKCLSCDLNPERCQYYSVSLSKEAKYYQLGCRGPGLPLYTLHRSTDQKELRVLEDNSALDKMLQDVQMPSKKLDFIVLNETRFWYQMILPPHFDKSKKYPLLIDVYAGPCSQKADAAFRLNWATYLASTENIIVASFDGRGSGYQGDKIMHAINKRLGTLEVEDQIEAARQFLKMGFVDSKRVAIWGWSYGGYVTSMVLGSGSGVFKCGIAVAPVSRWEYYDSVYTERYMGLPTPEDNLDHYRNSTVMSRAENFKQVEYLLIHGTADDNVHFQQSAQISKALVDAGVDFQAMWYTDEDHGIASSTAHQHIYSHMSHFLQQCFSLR
Dipeptidyl peptidase 4 (Homo sapiens, UniProt P27487), sequence (P27487 whole entry): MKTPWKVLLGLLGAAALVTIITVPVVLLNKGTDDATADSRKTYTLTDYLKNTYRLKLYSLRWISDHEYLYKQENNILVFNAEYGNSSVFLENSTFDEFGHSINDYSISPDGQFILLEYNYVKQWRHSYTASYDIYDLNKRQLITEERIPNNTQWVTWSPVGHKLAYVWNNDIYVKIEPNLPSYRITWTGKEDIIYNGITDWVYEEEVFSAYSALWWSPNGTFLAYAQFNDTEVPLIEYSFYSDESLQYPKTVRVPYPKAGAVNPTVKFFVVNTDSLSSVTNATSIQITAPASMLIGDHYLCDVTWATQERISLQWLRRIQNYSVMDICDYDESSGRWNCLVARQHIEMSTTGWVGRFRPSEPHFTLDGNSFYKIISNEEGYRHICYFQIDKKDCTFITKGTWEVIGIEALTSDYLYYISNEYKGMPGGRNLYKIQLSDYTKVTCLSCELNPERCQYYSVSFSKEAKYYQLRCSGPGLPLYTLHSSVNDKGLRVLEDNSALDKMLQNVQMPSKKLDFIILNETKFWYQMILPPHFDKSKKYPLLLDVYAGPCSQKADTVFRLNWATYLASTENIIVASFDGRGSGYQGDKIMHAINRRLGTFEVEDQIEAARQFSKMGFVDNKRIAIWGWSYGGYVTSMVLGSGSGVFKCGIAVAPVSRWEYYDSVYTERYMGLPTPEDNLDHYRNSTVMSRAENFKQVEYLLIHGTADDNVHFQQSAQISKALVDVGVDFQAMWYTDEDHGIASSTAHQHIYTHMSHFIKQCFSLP
Dipeptidyl peptidase 8, sequence (Q6V1X1 whole entry): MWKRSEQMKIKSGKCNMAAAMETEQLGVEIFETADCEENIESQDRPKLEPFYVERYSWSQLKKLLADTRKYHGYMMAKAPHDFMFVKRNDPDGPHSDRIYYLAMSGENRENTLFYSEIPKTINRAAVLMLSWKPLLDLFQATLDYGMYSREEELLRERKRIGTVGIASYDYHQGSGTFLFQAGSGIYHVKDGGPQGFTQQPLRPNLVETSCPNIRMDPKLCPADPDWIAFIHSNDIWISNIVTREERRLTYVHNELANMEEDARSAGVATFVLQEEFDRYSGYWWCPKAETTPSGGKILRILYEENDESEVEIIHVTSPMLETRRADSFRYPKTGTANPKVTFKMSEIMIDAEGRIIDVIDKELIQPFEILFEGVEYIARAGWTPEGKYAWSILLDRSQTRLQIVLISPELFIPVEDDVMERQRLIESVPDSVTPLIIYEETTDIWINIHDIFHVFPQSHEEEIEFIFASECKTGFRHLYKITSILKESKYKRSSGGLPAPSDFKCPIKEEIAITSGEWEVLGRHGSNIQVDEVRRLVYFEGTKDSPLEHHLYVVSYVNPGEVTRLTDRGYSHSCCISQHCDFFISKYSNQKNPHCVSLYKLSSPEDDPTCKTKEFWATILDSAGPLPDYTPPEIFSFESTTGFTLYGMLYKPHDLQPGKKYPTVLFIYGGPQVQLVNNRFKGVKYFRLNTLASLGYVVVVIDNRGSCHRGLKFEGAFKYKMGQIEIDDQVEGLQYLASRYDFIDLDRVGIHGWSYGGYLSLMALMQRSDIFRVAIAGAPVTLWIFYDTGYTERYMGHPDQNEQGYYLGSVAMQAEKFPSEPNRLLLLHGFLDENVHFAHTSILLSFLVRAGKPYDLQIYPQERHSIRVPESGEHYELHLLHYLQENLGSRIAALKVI
Dipeptidyl peptidase 9, sequence (Q86TI2 whole entry): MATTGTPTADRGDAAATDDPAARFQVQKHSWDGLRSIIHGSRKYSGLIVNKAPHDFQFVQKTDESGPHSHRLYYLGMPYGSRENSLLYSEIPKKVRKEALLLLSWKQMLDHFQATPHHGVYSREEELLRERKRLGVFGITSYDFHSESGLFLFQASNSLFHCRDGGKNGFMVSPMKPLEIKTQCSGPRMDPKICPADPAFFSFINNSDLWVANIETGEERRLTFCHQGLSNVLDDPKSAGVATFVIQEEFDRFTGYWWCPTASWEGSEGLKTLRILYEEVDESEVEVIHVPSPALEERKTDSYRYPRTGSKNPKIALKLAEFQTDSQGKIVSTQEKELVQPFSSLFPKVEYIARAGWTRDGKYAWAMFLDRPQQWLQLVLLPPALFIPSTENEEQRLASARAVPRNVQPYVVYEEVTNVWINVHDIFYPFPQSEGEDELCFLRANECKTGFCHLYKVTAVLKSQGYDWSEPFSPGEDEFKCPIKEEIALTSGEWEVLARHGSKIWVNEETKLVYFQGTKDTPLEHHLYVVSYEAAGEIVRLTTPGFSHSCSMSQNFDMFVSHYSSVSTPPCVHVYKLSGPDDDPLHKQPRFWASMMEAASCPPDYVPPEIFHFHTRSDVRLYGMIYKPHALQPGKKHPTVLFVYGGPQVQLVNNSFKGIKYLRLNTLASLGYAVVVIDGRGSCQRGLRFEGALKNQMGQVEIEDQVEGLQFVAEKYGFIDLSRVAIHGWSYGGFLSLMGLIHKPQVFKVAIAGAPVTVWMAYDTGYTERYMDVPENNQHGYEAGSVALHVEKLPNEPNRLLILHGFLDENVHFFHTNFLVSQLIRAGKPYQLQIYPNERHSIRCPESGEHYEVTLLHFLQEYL
Dipeptidyl peptidase 4 (Sus scrofa, UniProt P22411), sequence (P22411 whole entry): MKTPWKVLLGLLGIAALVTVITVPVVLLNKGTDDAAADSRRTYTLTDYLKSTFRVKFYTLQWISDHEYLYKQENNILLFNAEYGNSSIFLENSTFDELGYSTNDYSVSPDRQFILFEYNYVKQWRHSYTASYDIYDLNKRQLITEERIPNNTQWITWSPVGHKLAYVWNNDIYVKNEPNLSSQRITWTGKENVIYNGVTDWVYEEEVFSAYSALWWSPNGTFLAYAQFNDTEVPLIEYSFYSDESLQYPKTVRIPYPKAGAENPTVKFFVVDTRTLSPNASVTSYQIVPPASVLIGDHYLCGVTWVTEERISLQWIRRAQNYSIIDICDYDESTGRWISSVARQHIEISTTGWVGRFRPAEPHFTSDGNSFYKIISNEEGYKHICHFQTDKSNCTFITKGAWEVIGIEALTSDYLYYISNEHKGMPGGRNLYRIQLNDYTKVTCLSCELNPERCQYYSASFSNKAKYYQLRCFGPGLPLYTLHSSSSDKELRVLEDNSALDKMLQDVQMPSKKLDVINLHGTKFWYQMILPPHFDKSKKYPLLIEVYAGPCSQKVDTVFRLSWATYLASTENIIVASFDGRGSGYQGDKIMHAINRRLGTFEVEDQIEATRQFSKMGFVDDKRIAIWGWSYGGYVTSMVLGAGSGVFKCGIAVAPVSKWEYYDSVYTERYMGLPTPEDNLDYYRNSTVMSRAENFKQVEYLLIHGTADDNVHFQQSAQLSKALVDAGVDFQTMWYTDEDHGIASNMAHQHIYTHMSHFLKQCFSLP

`N#Cc1ccccc1Cn1c(N2CCC[C@@H](N)C2)nc2ccc(F)cc2c1=O` gave an inhibition in vivo at 10 mg/kg [1] of 50%.

For `N#Cc1ccc(NCCNCC(=O)N2N=CCC2C#N)nc1` (stereo unspecified), the IC50 [2] was 490 nM and the IC50 [3] was 780 nM.

In the case of `CC(N)/C(F)=C1\CCC[C@@H]1C#N` (stereo partly specified), the IC50 [4] is reported as 7690 nM.

With `Cc1ccc(O)c(C)c1[C@@H]1CN[C@H](C(=O)N2CCC[C@H]2C#N)C1` the inhibition in vivo at 1 mg/kg [5] was 95% and the inhibition in vivo at 1 mg/kg [6] was 83%.

Compound `CC(C)=CCN1C(C2CC[C@H]3NCC[C@@H]23)=NC2C1C(=O)N(CC(=O)c1ccccc1)C(=O)N2C` (stereo partly specified) has an IC50 [4] of 18 nM.

With `CC[C@H](C)[C@H](N)C(=O)N1C[C@@H](F)C[C@H]1C#N` the Cmax [7] was 372 ng/mL.

With `N#C[C@@H]1CCCN1C(=O)[C@@H](N)C1CCCCC1` the half-life [8] was greater than 48 h.

For `CN(C)C(=O)[C@@H](c1ccc(C2=CN3N=CNC3C=C2)cc1)[C@H](N)C(=O)N1CC[C@H](F)C1` (stereo partly specified), the IC50 [9] was greater than 100000 nM, the IC50 [10] was greater than 100000 nM and the IC50 [11] was greater than 100000 nM.

Work on `CC(N)/C(F)=C1\CCC[C@@H]1C#N` (single isomer, unassigned; diastereomer 2) yielded an IC50 [4] of 6030 nM.

Compound `N[C@H](C(=O)N1CC[C@H](F)C1)[C@H]1CC[C@H](NS(=O)(=O)c2ccc(F)cc2F)CC1` has an Activity [12] of 42%.

`N#Cc1ccc(N[C@@H]2CN[C@H](C(=O)N3CCSC3)C2)nc1` gave a bioavailability [13] of 83.9%, a half-life [14] of 5.27 h and an IC50 [3] of 30.4 nM.

Compound `N#C[C@@H]1CCCN1C(=O)CNC12CC3CC(CC(O)(C3)C1)C2` [VILDAGLIPTIN] has a bioavailability [15] greater than 90%.

Work on `N#Cc1ccc(N[C@@H]2CNC(C(=O)N3CCC[C@H]3C#N)C2)cc1C#N` (stereo partly specified) yielded an IC50 [16] of 0.17 nM.

In the case of `COc1ccc(CS(=O)(=O)C(C)(C)[C@H](N)C(=O)N2C[C@@H](F)C[C@H]2C#N)cc1`, the inhibition in vivo at 1 mg/kg [17] is reported as 84%.

Compound `N[C@H](C(=O)N1CCCC1)[C@H]1CC[C@H](NS(=O)(=O)c2ccc(F)cc2F)CC1` has an Activity [12] of 36%.

Compound `CC(C)[C@H](Oc1ccc(CNC(=O)[C@@H]2CCCN2C(=O)C[C@H](N)Cc2cc(F)ccc2F)cc1)C(=O)O` has an IC50 [4] of 0.48 nM, an IC50 [9] greater than 86000 nM and an IC50 [18] of 21000 nM. It also gave an IC50 [10] greater than 100000 nM and an IC50 [11] greater than 100000 nM.

With `CC(c1nc(-c2ccc(S(C)(=O)=O)cc2Cl)no1)[C@H](N)C(F)=C1CCCC1.O=C(O)C(F)(F)F` (stereo partly specified) the IC50 [19] was 62%.

For `N#C[C@@H]1C[C@@H]2C[C@@H]2N1C(=O)[C@@H](N)C12CC3CC(CC(O)(C3)C1)C2` [SAXAGLIPTIN ANHYDROUS], the inhibition in vivo at 4 µmol/kg [20] was 87% and the inhibition in vivo at 4 µmol/kg [21] was 87%.

Work on `COc1ccccc1N1CCc2nc(C)c(CN)c(-c3ccc(Cl)cc3Cl)c2C1=O` yielded an IC50 [4] of 2.28 nM.

For `C[C@H](N)C(=O)N1CCC[C@H]1B(O)O`, the Ki [11] was 125 nM.

`CC(C)(C)C(NC(=O)C[C@@H](N)C(=O)N1CCC[C@H]1C#N)c1ccccc1` (stereo partly specified) gave an IC50 [4] of 251 nM and a Selectivity ratio [22] of 53.

Work on `O=C(CNC12CC3CC(CC(C3)C1)C2)N1CCC[C@H]1B(O)O` yielded an IC50 [4] of 8 nM and an IC50 [23] of 420 nM.

Work on `CC1(NCC(=O)N2C[C@H](F)C[C@@H]2C#N)CCN(S(C)(=O)=O)CC1` yielded an IC50 [24] of 2.6 nM.
